For 25 molecules, IC50 results are on record in patent publication US20120190666A1, “Heteroaryl Compounds as PIKK Inhibitors” (Amgen Inc., priority 2009, published 2012).

The IC50 is the midpoint of a concentration-inhibition curve.

One experiment has as its target T1, PI3Kα (Homo sapiens, UniProt P42336).
T1 construct: Full length p110 subunits of PI3K α, β and δ, N-terminally labeled with polyHis tag; polyHis (N); made in house; host or cells: Sf9 insect cells (baculovirus)
The experiment is described as follows: In vitro PI3K AlphaScreen assay, PI3Kα. The format is biochemical. Conditions: PI(4,5)P2 substrate, 20 minutes at room temperature, read-out: P13Kalpha IC50 um. In outline:
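PI3Kα at 1.6 nM (2× stock) with PI(4,5)P2 10 μM and ATP 20 μM (2× stocks) in Tris pH 7, MgCl2, cholate, NaCl, DTT; 20 min at room temperature. Quenched with biotin-IP4/streptavidin-Donor beads, then GST-PIP3-binding protein/anti-GST Acceptor beads, 1.5 h dark; PIP3 formation read as loss of AlphaScreen signal.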
Background: Alpha assays give light when donor and acceptor beads are brought close together.

A further experiment concerns the target mTOR (Homo sapiens, UniProt P42345). The experiment is described as follows: mTOR LanthaScreen (TR-FRET, phosphorylation of 4EBP1). The format is biochemical. The settings on record: phosphorylation of GFP-4E-BP1, 10 μM ATP, 90 minutes. On the procedure: The mTOR LanthaScreen is a TR-FRET assay measuring the phosphorylation of mTOR's substrate 4EBP1. 384 well compound plates were prepared containing 1 μl of compound per well starting at 5 mM and diluted 1:2 across the row, resulting in a 22 well serial dilution. 24 μl of assay buffer (Invitrogen, PV4794) with 2 mM DTT was added to the compound plate in rows 1-24 using the VELOCITY 11™ VPREP™ 384 ST resulting in a DMSO concentration of 4%. The compound plate was mixed and 2.5 μl of serially diluted compound or controls was added to the assay plate (Costar, 3658).
The assay was conducted on the PerkinElmer® FlexDrop PLUS. A 5 μl mix of 800 nM GFP-4E-BP1 (Invitrogen, PV4759) and 20 μM ATP (Amgen) was added to rows 1-24. 2.5 μl of 0.6 μg/ml of mTOR Enzyme (Amgen) was added to rows 1-23. 2.5 μl of assay buffer was added to row 24 for the low control. The final concentration of the compounds was 50 μM serially diluted to 23.84 pM in 1% DMSO. […] The final concentrations in the assay reagents were 400 nM GFP-4E-BP1, 10 μM of ATP and 0.15 μg/ml of mTOR enzyme. The compound, enzyme, and substrate were incubated for 90 minutes. At this point, 10 μl of stop solution was added (20 mM Tris, pH 7.5 (Invitrogen, 15567-027), 0.02% Sodium Azide (Teknova, S0208), 0.01% NP-40 (Roche, 11754599001), 20 mM EDTA (Invitrogen, 15575-038) and 4 nM of Tb-anti-p4E-BP1 (Invitrogen, PV4758)) for a final concentration of 2 nM of Tb-anti-p4E-BP1.
Sixty minutes later the plates were read on the PerkinElmer® EnVision™ 2103 Multilable Reader using the Excitation filter 340 nm and the Emission filters 520 nm and 495 nm.
A general note: Time-resolved FRET reads energy transfer from a long-lived donor to a nearby acceptor.

T1 sequence (P42336 whole entry): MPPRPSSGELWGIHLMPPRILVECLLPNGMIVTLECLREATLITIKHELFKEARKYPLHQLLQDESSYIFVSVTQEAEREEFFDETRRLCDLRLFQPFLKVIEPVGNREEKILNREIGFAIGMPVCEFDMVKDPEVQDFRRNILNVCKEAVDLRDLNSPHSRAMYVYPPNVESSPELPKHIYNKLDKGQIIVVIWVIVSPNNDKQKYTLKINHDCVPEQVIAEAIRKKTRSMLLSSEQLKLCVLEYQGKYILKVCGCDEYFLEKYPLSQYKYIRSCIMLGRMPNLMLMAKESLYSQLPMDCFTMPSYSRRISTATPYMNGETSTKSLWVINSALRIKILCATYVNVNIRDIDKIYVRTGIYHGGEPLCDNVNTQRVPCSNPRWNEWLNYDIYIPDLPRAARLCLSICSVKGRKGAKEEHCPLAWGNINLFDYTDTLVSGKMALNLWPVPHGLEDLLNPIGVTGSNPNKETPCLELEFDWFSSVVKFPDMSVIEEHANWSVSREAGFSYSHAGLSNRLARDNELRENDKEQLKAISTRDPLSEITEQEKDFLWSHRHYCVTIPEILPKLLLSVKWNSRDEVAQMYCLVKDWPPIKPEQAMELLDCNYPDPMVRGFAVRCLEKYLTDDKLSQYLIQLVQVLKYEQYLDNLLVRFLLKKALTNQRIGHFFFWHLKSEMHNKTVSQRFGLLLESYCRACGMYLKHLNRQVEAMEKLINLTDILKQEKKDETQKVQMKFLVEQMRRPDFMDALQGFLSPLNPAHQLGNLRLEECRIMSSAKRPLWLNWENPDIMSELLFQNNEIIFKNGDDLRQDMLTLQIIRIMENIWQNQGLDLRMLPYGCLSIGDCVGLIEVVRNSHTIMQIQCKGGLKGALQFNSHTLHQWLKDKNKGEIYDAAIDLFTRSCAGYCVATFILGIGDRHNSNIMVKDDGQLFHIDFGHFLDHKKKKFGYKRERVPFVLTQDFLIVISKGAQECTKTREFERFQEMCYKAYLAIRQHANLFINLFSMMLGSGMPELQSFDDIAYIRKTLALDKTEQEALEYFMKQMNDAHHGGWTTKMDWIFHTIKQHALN
T1 sequence (P27986 whole entry partner): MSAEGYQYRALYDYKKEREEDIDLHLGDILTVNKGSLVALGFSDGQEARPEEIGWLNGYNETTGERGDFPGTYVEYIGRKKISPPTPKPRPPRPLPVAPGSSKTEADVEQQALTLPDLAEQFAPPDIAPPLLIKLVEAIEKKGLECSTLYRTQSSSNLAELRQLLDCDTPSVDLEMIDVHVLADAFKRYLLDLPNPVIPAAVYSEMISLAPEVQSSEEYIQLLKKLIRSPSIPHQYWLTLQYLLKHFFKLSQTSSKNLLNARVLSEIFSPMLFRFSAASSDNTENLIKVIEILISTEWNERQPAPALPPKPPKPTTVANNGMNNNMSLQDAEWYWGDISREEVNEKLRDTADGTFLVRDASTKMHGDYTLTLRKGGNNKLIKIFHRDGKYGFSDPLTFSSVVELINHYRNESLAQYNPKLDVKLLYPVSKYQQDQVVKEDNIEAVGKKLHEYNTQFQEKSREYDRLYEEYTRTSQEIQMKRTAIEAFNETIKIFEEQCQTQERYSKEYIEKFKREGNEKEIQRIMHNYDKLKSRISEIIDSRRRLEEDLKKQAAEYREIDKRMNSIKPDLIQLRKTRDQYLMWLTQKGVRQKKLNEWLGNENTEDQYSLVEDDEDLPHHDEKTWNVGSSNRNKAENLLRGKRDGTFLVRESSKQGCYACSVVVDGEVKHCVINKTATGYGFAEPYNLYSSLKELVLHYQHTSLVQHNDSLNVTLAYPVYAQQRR

On to `Cc1nc(Nc2cc(OCC(F)(F)F)cnn2)cc(-c2c(Nc3cc[nH]n3)nc3cccnn23)n1` [Cpd 60, 3-(2-methyl-6-((5-(2,2,2-trifluoroethoxy)-3-pyridazinyl)amino)-4-pyrimidinyl)-N-1H-pyrazol-3-ylimidazo[1,2-b]pyridazin-2-amine], for which the values for the half-inhibitory concentration (IC50) on PI3Kα and on mTOR were 39200 nM and 10 nM, respectively.

As to `Cc1nc(N)nc(-c2c(Nc3cc[nH]n3)nc3ccc(C4=CCN(C(=O)OC(C)(C)C)CC4)cn23)n1` [Cpd 97, tert-butyl 4-(3-(4-amino-6-methyl-1,3,5-triazin-2-yl)-2-(1H-pyrazol-3-ylamino)imidazo[1,2-a]pyridin-6-yl)-3,6-dihydro-1(2H)-pyridinecarboxylate], the 50% inhibitory concentration (IC50) on PI3Kα came to 350 nM; against mTOR, 16 nM.

For the molecule `Cc1nc(N)cc(-c2c(Nc3ccc4cc[nH]c4n3)nc3ccccn23)n1` [Cpd 41, 3-(6-amino-2-methyl-4-pyrimidinyl)-N-1H-pyrrolo[2,3-b]pyridin-6-ylimidazo[1,2-a]pyridin-2-amine], the IC50 at PI3Kα worked out at 43200 nM; against mTOR it was 400 nM.

As for `COCC(=O)Nc1cc(-c2c(Nc3ccn(C)n3)nc3cccnn23)nc(C)n1` [Cpd 123, 2-methoxy-N-(2-methyl-6-(2-((1-methyl-1H-pyrazol-3-yl)amino)imidazo[1,2-b]pyridazin-3-yl)-4-pyrimidinyl)acetamide], the IC50 at PI3Kα is 6930 nM; at mTOR it was 140 nM.

As for `Cc1nc(N)cc(-c2c(Nc3ccn(C(=O)NCc4ccccc4)n3)nc3ccccn23)n1` [Cpd 222, 3-((3-(6-amino-2-methyl-4-pyrimidinyl)imidazo[1,2-a]pyridin-2-yl)amino)-N-benzyl-1H-pyrazole-1-carboxamide], the IC50 stood at 1200 nM at PI3Kα and 5880 nM against mTOR.

As for `Cc1nc(N)nc(-c2c(Nc3cc[nH]n3)nc3ccc(-c4ccoc4)cn23)n1` [Cpd 105, 3-(4-amino-6-methyl-1,3,5-triazin-2-yl)-6-(3-furanyl)-N-1H-pyrazol-3-ylimidazo[1,2-a]pyridin-2-amine], the 50% inhibitory concentration (IC50) stood at 40 nM on PI3Kα and 14 nM on mTOR.

For the molecule `CC(=O)Nc1cc(-c2c(Nc3ccn(C)n3)nc3c(F)cccn23)nc(C)n1` [Cpd 63, N-(6-(8-fluoro-2-((1-methyl-1H-pyrazol-3-yl)amino)imidazo[1,2-a]pyridin-3-yl)-2-methyl-4-pyrimidinyl)acetamide], the concentration for half-maximal inhibition (IC50) on PI3Kα is 2040 nM; against mTOR, 60 nM.

Turning to `CNC(=O)c1cc(Nc2ccn[nH]2)n(-c2cc(N)nc(C)n2)n1` [Cpd 14, 5-(1H-pyrazol-5-ylamino)-1-(6-amino-2-methylpyrimidin-4-yl)-N-methyl-1H-pyrazole-3-carboxamide], the concentration for half-maximal inhibition (IC50) came to 2350 nM on PI3Kα and 120 nM against mTOR.

As for `Cc1nc(N)nc(-c2c(Nc3cc[nH]n3)nc3ccc(-c4ccc5c(c4)CCNC5=O)cn23)n1` [Cpd 175, 6-(3-(4-amino-6-methyl-1,3,5-triazin-2-yl)-2-(1H-pyrazol-3-ylamino)imidazo[1,2-a]pyridin-6-yl)-3,4-dihydro-1(2H)-isoquinolinone], the IC50 on PI3Kα came out at 140 nM; at mTOR, 2 nM.

For `Cc1nc(N)cc(-c2c(Nc3ccn(-c4ccccn4)n3)nc3ccccn23)n1` [Cpd 216, 3-(6-amino-2-methyl-4-pyrimidinyl)-N-(1-(2-pyridinyl)-1H-pyrazol-3-yl)imidazo[1,2-a]pyridin-2-amine], the 50% inhibitory concentration (IC50) was determined as 1370 nM at PI3Kα and 860 nM on mTOR.

On to `Cc1nc(N)cc(-c2c(Nc3ccc(NC(=O)Nc4ccncc4)cc3)nc3ccccn23)n1` [Cpd 57, 1-(4-((3-(6-amino-2-methyl-4-pyrimidinyl)imidazo[1,2-a]pyridin-2-yl)amino)phenyl)-3-(4-pyridinyl)urea], for which the half-maximal inhibitory concentration (IC50) at PI3Kα and against mTOR was 10 nM each time.

Turning to `Cc1nc(NC(=O)CC(F)(F)F)cc(-c2c(Nc3ccn(C)n3)nc3cccnn23)n1` [Cpd 134, 3,3,3-trifluoro-N-(2-methyl-6-(2-((1-methyl-1H-pyrazol-3-yl)amino)imidazo[1,2-b]pyridazin-3-yl)-4-pyrimidinyl)propanamide], the IC50 came out at 2080 nM on PI3Kα and 820 nM on mTOR.

With `Cc1nc(N)nc(-c2c(Nc3ccn[nH]3)nc3ccc(CCC(O)CO)cn23)n1` (centres unmarked) [Cpd 291, 4-(3-(4-amino-6-methyl-1,3,5-triazin-2-yl)-2-(1H-pyrazol-5-ylamino)-midazo[1,2-a]pyridin-6-yl)-1,2-butanediol], the IC50 came to 170 nM on PI3Kα and 1210 nM against mTOR.

Regarding `Cc1nc(N)nc(-c2c(Nc3cc[nH]n3)nc3ccccn23)n1` [Cpd 1, 3-(4-amino-6-methyl-1,3,5-triazin-2-yl)-N-(1H-pyrazol-3-yl)imidazo[1,2-a]pyridin-2-amine], the values for the IC50 at PI3Kα and against mTOR were 820 nM and 12 nM, respectively.

Turning to `Cc1nc(N)nc(-c2c(Nc3ccn(C(=O)Nc4ccccc4)n3)nc3ccccn23)n1` [Cpd 204, 3-((3-(4-amino-6-methyl-1,3,5-triazin-2-yl)imidazo[1,2-a]pyridin-2-yl)amino)-N-phenyl-1H-pyrazole-1-carboxamide], the IC50 at PI3Kα was found to be 3000 nM; at mTOR, 90 nM.

In the case of `COCCOc1ccc2nc(Nc3cc[nH]n3)c(-c3cc(N)nc(C)n3)n2n1` [Cpd 69, 3-(6-amino-2-methyl-4-pyrimidinyl)-6-(2-methoxyethoxy)-N-1H-pyrazol-3-ylimidazo[1,2-b]pyridazin-2-amine], the results for the half-maximal inhibitory concentration (IC50) at PI3Kα and against mTOR were 90 nM and 4 nM, respectively.

Turning to `Cc1nc(NC(=O)CN(C)C)cc(-c2c(Nc3ccn(C)n3)nc3cccnn23)n1` [Cpd 92], the IC50 on PI3Kα was 20100 nM; on mTOR, 780 nM.

In the case of `CSc1cccc(-c2ccc3nc(Nc4cc[nH]n4)c(-c4nc(C)nc(N)n4)n3c2)c1` [Cpd 109, 3-(4-amino-6-methyl-1,3,5-triazin-2-yl)-6-(3-(methylsulfanyl)phenyl)-N-1H-pyrazol-3-ylimidazo[1,2-a]pyridin-2-amine], the IC50 came to 470 nM on PI3Kα and 50 nM on mTOR.

`Cc1nc(N)nc(-c2c(Nc3cc[nH]n3)nc3ccc(Nc4ccncc4)cn23)n1` [Cpd 166]: the IC50 was 5650 nM at PI3Kα and 25 nM against mTOR.

As to `Cc1nc(Nc2cccnn2)cc(-c2c(Nc3ccn(C)n3)nc3cccnn23)n1` [Cpd 34, N-(1-methyl-1H-pyrazol-3-yl)-3-(2-methyl-6-(3-pyridazinylamino)-4-pyrimidinyl)imidazo[1,2-b]pyridazin-2-amine], the IC50 at PI3Kα stood at 750 nM; against mTOR it was 440 nM.

As for `Cc1nc(N)cc(-n2nc(C(=O)N3CCOCC3)cc2Nc2ccn[nH]2)n1` [Cpd 13, (5-(1H-pyrazol-5-ylamino)-1-(6-amino-2-methylpyrimidin-4-yl)-1H-pyrazol-3-yl)(morpholino)methanone], the IC50 was 1120 nM at PI3Kα and 100 nM at mTOR.

Turning to `Cc1nc(NC(=O)CC#N)cc(-c2c(Nc3ccn(C)n3)nc3ccccn23)n1` [Cpd 126, 2-cyano-N-(2-methyl-6-(2-((1-methyl-1H-pyrazol-3-yl)amino)imidazo[1,2-a]pyridin-3-yl)-4-pyrimidinyl)acetamide], the figures for the IC50 on PI3Kα and on mTOR were 5340 nM and 690 nM, respectively.

Take `Cc1nc(N)cc(-n2nc(C(=O)Nc3cccnc3)cc2Nc2ccn[nH]2)n1` [Cpd 11, 5-(1H-pyrazol-5-ylamino)-1-(6-amino-2-methylpyrimidin-4-yl)-N-(pyridin-3-yl)-1H-pyrazole-3-carboxamide]: the figures for the concentration for half-maximal inhibition (IC50) on PI3Kα and against mTOR were 660 nM and 820 nM, respectively.

Consider `Cc1nc(N)nc(-c2c(Nc3cc[nH]n3)nc3ccc(-c4ccc(S(C)(=O)=O)cc4)cn23)n1` [Cpd 344, 3-(4-amino-6-methyl-1,3,5-triazin-2-yl)-6-(4-(methylsulfonyl)phenyl)-N-1H-pyrazol-3-ylimidazo[1,2-a]pyridin-2-amine], for which the IC50 at PI3Kα was found to be 70 nM; against mTOR, 80 nM.

Consider `Cc1nc(N)nc(-c2c(Nc3cc[nH]n3)nc3ccc(-c4ccc(F)cc4C)cn23)n1` [Cpd 107, 3-(4-amino-6-methyl-1,3,5-triazin-2-yl)-6-(4-fluoro-2-methylphenyl)-N-1H-pyrazol-3-ylimidazo[1,2-a]pyridin-2-amine], for which the IC50 at PI3Kα came out at 250 nM; on mTOR it was 40 nM.
